The values that follow come from patent US12510533B2, “Methods for treating multiple myeloma and the use of companion biomarkers for 4-(4-(4-(((2-(2,6-dioxopiperidin-3-yl)-1-oxoisoindolin-4-yl)oxy)methyl)benzyl)piperazin-1-yl)-3-fluorobenzonitrile” (Celgene Corporation, priority 2018, dated 2025).

Read-outs that look alike come from different tables or passages of the source.

The target of test [1] is T1, Aiolos (Homo sapiens, UniProt Q96SW2+Q9UKT9).
T1 construct: expressed in transfected cells; host or cells: DF15 multiple myeloma cells
T1 sequence (Q9UKT9 whole entry): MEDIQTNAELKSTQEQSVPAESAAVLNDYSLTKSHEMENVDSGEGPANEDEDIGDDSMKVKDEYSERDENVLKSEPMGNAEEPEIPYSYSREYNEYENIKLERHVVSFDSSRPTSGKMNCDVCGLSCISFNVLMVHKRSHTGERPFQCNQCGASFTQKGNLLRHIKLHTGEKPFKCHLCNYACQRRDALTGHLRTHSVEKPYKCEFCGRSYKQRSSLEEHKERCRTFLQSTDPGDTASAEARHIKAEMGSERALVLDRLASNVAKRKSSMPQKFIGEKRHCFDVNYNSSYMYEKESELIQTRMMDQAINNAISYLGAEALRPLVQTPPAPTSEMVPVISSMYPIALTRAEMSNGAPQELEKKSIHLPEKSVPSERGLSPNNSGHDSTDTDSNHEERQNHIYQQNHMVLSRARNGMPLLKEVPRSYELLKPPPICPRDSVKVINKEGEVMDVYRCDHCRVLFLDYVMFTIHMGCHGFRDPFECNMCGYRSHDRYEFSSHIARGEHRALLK
T1 sequence (Q96SW2 whole entry): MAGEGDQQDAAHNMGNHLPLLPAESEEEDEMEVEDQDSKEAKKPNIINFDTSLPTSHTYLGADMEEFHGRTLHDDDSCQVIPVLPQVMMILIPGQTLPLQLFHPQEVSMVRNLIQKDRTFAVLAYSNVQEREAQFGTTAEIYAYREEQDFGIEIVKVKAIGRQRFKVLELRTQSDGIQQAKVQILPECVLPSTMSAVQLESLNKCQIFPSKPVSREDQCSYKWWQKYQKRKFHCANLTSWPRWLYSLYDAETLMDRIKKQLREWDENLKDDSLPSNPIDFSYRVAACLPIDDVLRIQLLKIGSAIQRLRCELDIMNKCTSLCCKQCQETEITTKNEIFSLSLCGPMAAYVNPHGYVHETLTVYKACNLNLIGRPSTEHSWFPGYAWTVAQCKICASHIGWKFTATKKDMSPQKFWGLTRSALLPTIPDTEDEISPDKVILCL
T1 sequence (Q16531 2-1140, further chain): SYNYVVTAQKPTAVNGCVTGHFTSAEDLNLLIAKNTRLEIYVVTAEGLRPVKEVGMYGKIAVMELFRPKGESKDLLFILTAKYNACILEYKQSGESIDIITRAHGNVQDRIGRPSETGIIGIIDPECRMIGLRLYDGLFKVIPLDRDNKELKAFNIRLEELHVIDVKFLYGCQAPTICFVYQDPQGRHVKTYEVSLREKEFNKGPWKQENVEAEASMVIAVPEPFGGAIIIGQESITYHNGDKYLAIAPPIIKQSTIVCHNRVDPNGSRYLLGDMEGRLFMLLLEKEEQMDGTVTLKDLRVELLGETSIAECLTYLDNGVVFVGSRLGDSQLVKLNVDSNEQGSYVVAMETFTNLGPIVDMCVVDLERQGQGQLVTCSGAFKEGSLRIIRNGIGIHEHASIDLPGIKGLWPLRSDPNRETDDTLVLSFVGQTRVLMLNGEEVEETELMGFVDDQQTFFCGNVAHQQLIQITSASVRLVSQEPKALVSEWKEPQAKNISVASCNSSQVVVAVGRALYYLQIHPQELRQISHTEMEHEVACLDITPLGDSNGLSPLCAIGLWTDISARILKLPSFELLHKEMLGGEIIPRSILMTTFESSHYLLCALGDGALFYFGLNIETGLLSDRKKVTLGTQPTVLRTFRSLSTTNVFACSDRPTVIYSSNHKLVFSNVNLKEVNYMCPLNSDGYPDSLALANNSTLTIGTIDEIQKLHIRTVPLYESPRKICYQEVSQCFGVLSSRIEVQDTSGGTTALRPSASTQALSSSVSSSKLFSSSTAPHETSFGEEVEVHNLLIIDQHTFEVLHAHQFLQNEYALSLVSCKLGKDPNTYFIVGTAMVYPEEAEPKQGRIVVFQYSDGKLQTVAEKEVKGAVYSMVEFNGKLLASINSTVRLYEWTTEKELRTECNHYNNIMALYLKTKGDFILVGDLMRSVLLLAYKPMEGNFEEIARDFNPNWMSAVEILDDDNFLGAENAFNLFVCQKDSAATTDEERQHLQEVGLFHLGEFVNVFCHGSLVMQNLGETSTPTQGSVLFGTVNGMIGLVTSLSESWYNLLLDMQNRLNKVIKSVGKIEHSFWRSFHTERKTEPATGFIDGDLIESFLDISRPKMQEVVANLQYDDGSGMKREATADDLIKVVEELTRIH
Description: Phase 1 study, Aiolos expression by flow cytometry in CD3+ T cells. It counts as in vivo. To be noted: QD days 1-10, 15-24/28 and BID days 1-3, 15-17/28; recovered during dosing interruptions. How it is done: FIG. 24A and FIG. 24B illustrate that Compound 2 induces Aiolos degradation in CD3+ T cells from peripheral blood of relapsed/refractory multiple myeloma patients after (FIG. 24A) the once daily (QD) 1-10, 15-24/28 schedule, or (FIG. 24B) the twice daily (BID) 1-3, 15-17/28 schedule.
Aiolos expression was measured by flow cytometry in CD3+ T cells before and during Compound 2 treatment in two different dosing schedules (QD administration on days 1 to 10 and days 15 to 24 of a 28 day cycle, and BID administration on days 1 to 3 and days 15 to 17 of a 28 day cycle).

Test [2] concerns H929-1051. Nature of the test: Apoptosis by Caspase-Glo 3/7 normalized to CellTiter-Glo in H929-1051 cells, dexamethasone alone or with compound. Type of test: cell-based, human. The following applies: 72 hours; Compound 2 0.001, 0.01 or 0.1 μM.
Description: Dexamethasone was dispensed at 20 concentrations, using an acoustic dispenser. The plates were sealed and stored at room temperature for the next day. […] Cells were dispensed into the assay plates with a Multidrop dispenser and duplicate plates were made for the assay. Measurement of apoptosis was made at 72 hours post-compound treatment using a Caspase-Glo 3/7 and CellTiter-Glo Assays. The Caspase-Glo 3/7 luminescence was normalized to the CellTiter-Glo luminescence to account for differences in cell number. The fold change of the treated sample was calculated as follows: normalized caspase of treated sample/average of normalized DMSO control.
The subject of test [3] is H929-1051. Description: Tumor cell lysis by anti-CD3-activated, compound-treated PBMCs, co-culture with untreated H929-1051. Type of test: cell-based. The following applies: Homo sapiens, PBMC; lenalidomide-resistant H929-1051, untreated; 24-hour co-culture.
The target in test [4] is T2, Ikaros (Homo sapiens, UniProt Q13422+Q96SW2). Nature of the test: Phase 1 study, Ikaros expression by flow cytometry in CD3+ T cells. It counts as in vivo. Also on record: The effects of Compound 2 on the degradation of Ikaros in CD4+ and CD8+ T cells; endogenous in cells; CD34+ bone marrow cells of healthy donors; CD3+ T cells of multiple myeloma patients. The following applies: QD days 1-10, 15-24/28 and BID days 1-3, 15-17/28; recovered during dosing interruptions. On the procedure: FIG. 25A and FIG. 25B illustrate that Compound 2 induced Ikaros degradation in CD3+ T cells from peripheral blood of relapsed/refractory multiple myeloma patients after (FIG. 25A) the once daily (QD) 1-10, 15-24/28 schedule, or (FIG. 25B) the twice daily (BID) 1-3, 15-17/28 schedule.
T2 sequence (Q13422 whole entry): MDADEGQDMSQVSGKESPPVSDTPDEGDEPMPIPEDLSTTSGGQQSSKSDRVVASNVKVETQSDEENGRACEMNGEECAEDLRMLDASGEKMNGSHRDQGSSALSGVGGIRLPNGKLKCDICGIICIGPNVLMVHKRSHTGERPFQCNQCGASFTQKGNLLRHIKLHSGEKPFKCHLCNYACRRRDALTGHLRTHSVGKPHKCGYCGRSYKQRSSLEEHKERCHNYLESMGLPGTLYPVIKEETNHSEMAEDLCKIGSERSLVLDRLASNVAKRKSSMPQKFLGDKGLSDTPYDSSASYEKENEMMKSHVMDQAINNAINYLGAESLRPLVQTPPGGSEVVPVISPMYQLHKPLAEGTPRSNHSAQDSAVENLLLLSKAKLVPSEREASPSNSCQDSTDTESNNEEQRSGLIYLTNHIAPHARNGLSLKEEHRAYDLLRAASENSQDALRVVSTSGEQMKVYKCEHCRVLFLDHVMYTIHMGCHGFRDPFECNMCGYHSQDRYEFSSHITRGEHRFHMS
T2 sequence (Q16531 2-1140, further chain): as the sequence (Q16531 2-1140, further chain) above
T2 sequence (Q96SW2 whole entry): as the sequence (Q96SW2 whole entry) above
Ikaros expression was measured by flow cytometry in CD3+ T cells before and during Compound 2 treatment in two different dosing schedules (QD administration on days 1 to 10 and days 15 to 24 of a 28 day cycle, and BID administration on days 1 to 3 and days 15 to 17 of a 28 day cycle).

Test [5] has as its target T2, Ikaros. Nature of the test: Ikaros degradation in CD4+ T cells. Type of test: cell-based. Further details: The effects of Compound 2 on the degradation of Ikaros in CD4+ and CD8+ T cells; endogenous in cells; host or cells: CD4+ and CD8+ T cells of healthy donors; CD34+ bone marrow cells of healthy donors; CD3+ T cells of multiple myeloma patients. To be noted: 24 hours, read-out: Ikaros degradation IC50. On the procedure: FIG. 22A-FIG. 22C illustrate that Compound 2 induces degradation of Ikaros in CD4+ T cells. […] Data shown are an average from two donors and are represented as MFI normalized to DMSO control.
The effects of Compound 2 on the degradation of Ikaros in CD4+ and CD8+ T cells over a 72 hour time course were investigated. The ability of Compound 2 to induce effector cytokine release correlated with degradation of Ikaros in CD4+ T cells, a known transcriptional repressor of IL-2 (FIG. 22A-FIG. 22C). […] The ability of Compound 2 to degrade Ikaros was also observed at the 48 and 72 hour time point in both CD4+(FIG. 22B and FIG. 22C) and CD8+ (data not shown) T cell populations. […] Thus, Ikaros and Aiolos can serve as biomarkers of T-cell activation.

For test [6], the system named is multiple myeloma cell lines with acquired resistance. Description: Proliferation (CellTiter-Glo, 5 days) of parental and lenalidomide- or pomalidomide-resistant MM cell lines. Type of test: cell-based, human. On the procedure: Cell lines were treated with (FIG. 11A) Pomalidomide, or (FIG. 11B) Compound 2 for 5 days and IC50 values were assessed using an ATP determination assay (CellTiter-Glo). Percent control was calculated by subtracting the background and normalizing to the DMSO control (100% of control).
Cells were treated for 5 days and then assessed using an ATP determination assay (CellTiter-Glo). The percentage of control was calculated by subtracting the background and normalizing to the DMSO control (100% of control).
Proliferation was assessed using the CellTitre-Glo® assay.

The next test relates to IL-2. Description: IL-2 secretion from anti-CD3 antibody-stimulated healthy donor PBMCs. Type of test: cell-based, human. On the procedure: The immunomodulatory activity of Compound 2 on T cell receptor (TCR)-activated healthy PBMCs was assessed.
The effect of Compound 2 in combination with different concentrations of dexamethasone on the ability of PBMCs to produce IL-2 was explored. […]

Test [7] addresses T1, Aiolos. Nature of the test: Aiolos degradation, ePL luminescence assay in DF15 cells expressing ePL-tagged Aiolos. It counts as cell-based. To be noted: for DC50: read-out: Degradation of Aiolos IC50, DF15 cells. On the procedure:
FIG. 1 illustrates that Compound 2 and Compound 3 degraded Aiolos protein in a time and concentration dependent manner. DF15 cells expressing Enhanced ProLabel (ePL)-tagged Aiolos were incubated with Compound 2 (triangle) or Compound 3 (square) for 45 minutes, 90 minutes, or 3 hours at the indicated concentrations. Cell extracts were then generated and the amount of Aiolos-ePL protein was determined by ePL luminescence assay.
The relative effectiveness of Compound 2 and Compound 3 to promote the destruction of Aiolos protein by the CRL4^CRBN E3 ubiquitin ligase was investigated in DF15 myeloma cells at different time points (45 minutes, 90 minutes, and 3 hours). DF15 cells expressing Enhanced ProLabel (ePL)-tagged Aiolos were incubated with Compound 2 or Compound 3 for 45 minutes, 90 minutes, or 3 hours. Cell extracts were then generated and the amount of Aiolos ePL protein was determined by ePL luminescence assay. Values shown in Table 1 correspond to data presented in FIG. 1 for Aiolos content vs. concentration.

In the case of `N#Cc1ccc(N2CCN(Cc3ccc(COc4cccc5c4CN([C@H]4CCC(=O)NC4=O)C5=O)cc3)CC2)c(F)c1` [Compound 2, (S)-4-(4-(4-(((2-(2,6-dioxopiperidin-3-yl)-1-oxoisoindolin-4-yl)oxy)methyl)benzyl)piperazin-1-yl)-3-fluorobenzonitrile], the “Aiolos degradation in CD3+ T cells” value at Aiolos [1] is “dose dependent”. Also, the “shift of the onset of dexamethasone activity in the presence of Compound 2” value in the test with H929-1051 [2] is listed as 1 log. For the same compound, the IC50 in the test with H929-1051 [3] was found to be 0.2 nM. Moreover, at Ikaros [4], the “Ikaros degradation in CD3+ T cells” value was “dose dependent”. Moreover, the DC50 is 0.3 nM on Ikaros [5], greater than 100 nM on Aiolos [7] (45 minutes incubation), 0.36 nM at Aiolos [7] (90 minutes incubation) and 0.031 nM at Aiolos [7] (3 hours incubation). Besides, the “sensitivity of cell lines with acquired resistance and low CRBN” value in test [6] was “sensitive”. For the same compound, the anti-proliferative activity entry in test [6] (DF15R cell line, lacks CRBN expression) is recorded as “little anti-proliferative activity”. Moreover, the “peak IL-2 production above the vehicle control” value in the test with IL-2 (24 hours) turned out to be 5.5 fold. For the same compound, the EC50 with IL-2 (Homo sapiens, PBMC, 72 h, read-out: IL-2 secretion, mean half-maximal effective concentration (EC50)) was determined as 0.014 nM. The “Compound 2 concentration at peak IL-2 response” value with IL-2 (in combination with 10 nM dexamethasone) is 10 pM. In the test with IL-2 (in combination with 10 nM dexamethasone, 4 donors, 72 hours), the “IL-2 induction above the vehicle control” value was “at least 10 fold”. Further, the IL-2 induction result with IL-2 (in combination with 100 nM dexamethasone) is “little induction of IL-2 above baseline”. The “manner of Aiolos degradation” value at Aiolos [7] (45 minutes, 90 minutes, 3 hours) was “time-dependent and concentration-dependent”. In addition, the inhibition at 0.001 µM on Aiolos [7] (DF15, read-out: inhibition at 0.001 μM) stood at 27%.
